Assay results published in patent US10517889B2, “Modulators of SMAD7 expression” (Ionis Pharmaceuticals, Inc., priority 2017, dated 2019).
Strand notation (5' to 3'): a small letter for the sugar, then the base; units joined by * are phosphorothioate-linked, units joined directly phosphodiester-linked; [ ] holds rarer units or linkages, { } end groups; capitals alone tell only the bases. e = 2'-O-(2-methoxyethyl) (MOE); [5mC] = 5-methylcytosine; d = 2'-deoxy (DNA)

Tested on: human SMAD7 mRNA
Test: Antisense inhibition of human SMAD7 mRNA expression in Hep3B cells by 5-10-5 MOE gapmers, single concentration, electroporation, RT-PCR (Example 1, Study 1 and 2)
Assay type: cell-based
Details: Study 2, electroporation with 15,000 nM antisense oligonucleotide, 5-10-5 MOE gapmers targeting SEQ ID NO: 1 and 2
How it was run: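 Hep3B cells (20,000/well) electroporated with 5-10-5 MOE gapmer at 5,000 nM or 15,000 nM for approximately 24 h. SMAD7 mRNA quantified by real-time PCR with primer probe set RTS5062 and normalized to RIBOGREEN total RNA. Values are percent inhibition relative to untreated controls.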

| Substance | % Inhibition | % inhibition of SMAD7 mRNA expression |
| --- | --- | --- |
| 771887 (antisense e[5mC]*eA*eG*e[5mC]*e[5mC]*dA*d[5mC]*dT*dG*d[5mC]*dT*dG*dT*d[5mC]*dT*eG*eA*eG*eG*eA) [compound 771887] | 14% | – |
| 771358 (antisense eA*eG*eT*eT*eA*dA*dT*d[5mC]*dA*dT*dT*dA*d[5mC]*dT*d[5mC]*eG*eA*eG*eT*e[5mC]) [compound 771358] | 36% | – |
| 771596 (antisense eG*eA*e[5mC]*eA*eA*dG*dG*dA*dT*dG*dA*dA*dA*dA*dT*eA*eA*eT*eT*eG) [compound 771596] | – | 0% |
| 771361 (antisense eA*e[5mC]*eA*eG*e[5mC]*dA*d[5mC]*d[5mC]*dT*dT*dG*dT*d[5mC]*dA*d[5mC]*e[5mC]*e[5mC]*eG*eT*e[5mC]) [compound 771361] | 27% | – |
| 771421 (eG*e[5mC]*e[5mC]*e[5mC]*eT*dG*d[5mC]*d[5mC]*d[5mC]*dG*dG*dG*d[5mC]*d[5mC]*dG*e[5mC]*e[5mC]*eG*e[5mC]*e[5mC]; antisense) [compound 771421] | 0% | – |
| 771863 (antisense e[5mC]*e[5mC]*eA*eG*e[5mC]*d[5mC]*d[5mC]*d[5mC]*d[5mC]*dT*d[5mC]*d[5mC]*dT*dG*dG*eG*eA*e[5mC]*eT*eA) [compound 771863] | 9% | – |
| 771469 (antisense eT*eT*e[5mC]*eT*eG*d[5mC]*dA*d[5mC]*d[5mC]*dA*dG*d[5mC]*dT*dG*dA*e[5mC]*eT*e[5mC]*eT*eT) [compound 771469] | – | 13% |
| 771590 (antisense eG*e[5mC]*e[5mC]*eT*eG*dT*dG*dG*dA*d[5mC]*dA*dG*dG*d[5mC]*d[5mC]*e[5mC]*eG*eT*eG*eT) [compound 771590] | – | 14% |
| 771495 (antisense e[5mC]*eT*eA*eG*e[5mC]*d[5mC]*dA*dG*d[5mC]*dA*d[5mC]*dG*dG*dG*d[5mC]*eA*eG*e[5mC]*eT*eG) [compound 771495] | – | 18% |
| 771534 (antisense eA*eA*e[5mC]*eA*eG*dA*dA*d[5mC]*dA*d[5mC]*dA*dA*dA*d[5mC]*dG*eA*eG*eG*eA*e[5mC]) [compound 771534] | – | 0% |
| 771346 (antisense e[5mC]*eG*eT*eG*eA*dT*dT*d[5mC]*dT*d[5mC]*d[5mC]*dG*dT*dA*dT*eT*eT*eA*e[5mC]*eT) [compound 771346] | 22% | – |
| 771445 (eA*e[5mC]*eA*eG*e[5mC]*d[5mC]*dT*d[5mC]*dT*dT*dG*dA*d[5mC]*dT*dT*e[5mC]*e[5mC]*eG*eA*eG; antisense) [compound 771445] | 10% | – |
| 771359 (antisense eG*eT*e[5mC]*eA*e[5mC]*d[5mC]*d[5mC]*dG*dT*d[5mC]*dT*dG*dG*dG*d[5mC]*eT*e[5mC]*e[5mC]*eG*eG) [compound 771359] | 15% | – |
| 771735 (antisense eT*eG*eG*eG*eT*d[5mC]*d[5mC]*d[5mC]*dT*d[5mC]*dA*dA*dG*dA*dG*e[5mC]*eT*e[5mC]*eA*e[5mC]) [compound 771735] | 38% | – |
| 771378 (antisense eA*eT*e[5mC]*eT*eT*dT*dA*dA*dG*d[5mC]*dA*d[5mC]*dG*d[5mC]*dT*e[5mC]*eT*eA*eA*eA) [compound 771378] | 22% | – |
| 771369 (antisense e[5mC]*eA*eA*eA*eA*dG*dG*d[5mC]*dT*dG*dA*d[5mC]*dT*d[5mC]*dG*e[5mC]*eG*eG*e[5mC]*e[5mC]) [compound 771369] | 22% | – |
| 771916 (antisense e[5mC]*e[5mC]*eT*eT*e[5mC]*dT*dT*dA*dA*dA*dT*dT*dT*dT*dT*eA*eA*eT*eT*eT) [compound 771916] | 0% | – |
| 771413 (eT*eG*eT*e[5mC]*e[5mC]*dG*dT*d[5mC]*dG*d[5mC]*d[5mC]*d[5mC]*d[5mC]*dT*dT*e[5mC]*eT*e[5mC]*e[5mC]*e[5mC]; antisense) [compound 771413] | 24% | – |

Same assay, conditions: electroporation with 15,000 nM antisense oligonucleotide (Study 2), 5-10-5 MOE gapmers targeting SEQ ID NO: 1 and 2

| Substance | % inhibition of SMAD7 mRNA expression | % Inhibition of SMAD7 mRNA |
| --- | --- | --- |
| 771451 (antisense eA*eG*eA*e[5mC]*eT*d[5mC]*dT*dA*dG*dT*dT*d[5mC]*dG*d[5mC]*dA*eG*eA*eG*eT*e[5mC]) [compound 771451] | 15% | – |
| 771584 (antisense eA*eG*e[5mC]*e[5mC]*eG*dT*dG*d[5mC]*dT*d[5mC]*d[5mC]*dT*dG*dG*d[5mC]*eA*eG*e[5mC]*eT*eG) [compound 771584] | – | 26% |
| 771618 (antisense e[5mC]*eA*eG*eG*eA*dT*dG*dG*dG*dA*dG*d[5mC]*dA*dG*dG*e[5mC]*eA*eG*eT*eG) [compound 771618] | 30% | – |
| 771608 (antisense e[5mC]*eT*eG*eG*eG*dT*dG*dA*dG*d[5mC]*dA*dA*dT*dA*d[5mC]*eT*eG*eT*eG*eA) [compound 771608] | 34% | 45% |
| 771617 (antisense e[5mC]*eA*eG*eT*eG*d[5mC]*dT*dG*dA*dG*d[5mC]*dT*dG*dG*dT*eT*eT*eT*e[5mC]*eT) [compound 771617] | 10% | – |

Same assay, conditions: electroporation, 5,000 nM, approximately 24 hours, relative to untreated control cells, gapmers targeting SEQ ID NO: 1 and 2

| Substance | % inhibition of SMAD7 mRNA expression |
| --- | --- |
| 771358 (antisense eA*eG*eT*eT*eA*dA*dT*d[5mC]*dA*dT*dT*dA*d[5mC]*dT*d[5mC]*eG*eA*eG*eT*e[5mC]) [compound 771358] | 53% |

Same assay, conditions: electroporation, 15,000 nM antisense oligonucleotide (Study 2), 5-10-5 MOE gapmers targeting SEQ ID NO: 1 and 2

| Substance | % inhibition of SMAD7 mRNA expression |
| --- | --- |
| 771930 (antisense e[5mC]*e[5mC]*eA*eG*e[5mC]*d[5mC]*d[5mC]*dA*dG*dA*dA*dA*dA*dA*d[5mC]*eT*eG*e[5mC]*eA*eA) [compound 771930] | 26% |
| 771442 (e[5mC]*eT*e[5mC]*eT*eT*dG*dA*d[5mC]*dT*dT*d[5mC]*d[5mC]*dG*dA*dG*eG*eA*eA*eT*eG; antisense) [compound 771442] | 22% |
| 771538 (antisense eT*eT*eT*e[5mC]*eT*d[5mC]*dA*dA*dA*dG*dA*dG*d[5mC]*dG*dA*eA*eA*e[5mC]*eA*eA) [compound 771538] | 24% |
| 771584 (antisense eA*eG*e[5mC]*e[5mC]*eG*dT*dG*d[5mC]*dT*d[5mC]*d[5mC]*dT*dG*dG*d[5mC]*eA*eG*e[5mC]*eT*eG) [compound 771584] | 7% |
| 771906 (antisense eA*e[5mC]*e[5mC]*e[5mC]*eT*dT*dG*d[5mC]*dT*dG*dG*dT*d[5mC]*dT*d[5mC]*eT*eT*eG*eT*eT) [compound 771906] | 0% |
| 771922 (antisense eA*eA*eA*eT*eT*d[5mC]*d[5mC]*dT*dT*dT*dA*dA*dG*dG*dT*eG*eT*eT*eG*e[5mC]) [compound 771922] | 29% |
| 771745 (antisense eG*eT*eG*eA*eA*dG*dA*dA*dG*d[5mC]*dA*dA*dA*dG*dT*eA*eT*eA*e[5mC]*e[5mC]) [compound 771745] | 24% |
| 771381 (antisense eA*eA*eA*eA*e[5mC]*dA*d[5mC]*d[5mC]*dA*dA*dG*dA*dT*d[5mC]*d[5mC]*eA*eT*e[5mC]*eT*eT) [compound 771381] | 0% |
| 771426 (e[5mC]*eA*e[5mC]*e[5mC]*eG*d[5mC]*d[5mC]*dT*dT*dG*d[5mC]*d[5mC]*d[5mC]*dA*dG*eG*e[5mC]*eA*eG*e[5mC]; antisense) [compound 771426] | 28% |
| 771841 (antisense eT*eT*eT*eA*eG*dA*dA*dA*d[5mC]*d[5mC]*d[5mC]*dA*dG*dA*dG*eA*e[5mC]*eA*eA*eA) [compound 771841] | 36% |
| 771427 (e[5mC]*e[5mC]*eT*e[5mC]*eG*d[5mC]*dA*d[5mC]*d[5mC]*dG*d[5mC]*d[5mC]*dT*dT*dG*e[5mC]*e[5mC]*e[5mC]*eA*eG; antisense) [compound 771427] | 36% |
| 771434 (eG*e[5mC]*e[5mC]*eG*e[5mC]*dT*d[5mC]*d[5mC]*dT*dT*d[5mC]*dA*dG*dT*dT*eT*e[5mC]*eT*eT*eG; antisense) [compound 771434] | 27% |
| 771914 (antisense eA*eT*eT*eT*eA*dG*dG*dA*dA*d[5mC]*dA*dA*dG*dG*dG*e[5mC]*eA*eA*eG*e[5mC]) [compound 771914] | 34% |
| 771913 (antisense eA*eA*eA*eA*eA*dA*dG*d[5mC]*d[5mC]*dA*dG*dT*dA*dA*dA*eG*eA*e[5mC]*eA*eT) [compound 771913] | 11% |

Same assay, conditions: electroporation, 15,000 nM, approximately 24 hours, relative to untreated control cells, gapmers targeting SEQ ID NO: 1 and 2

| Substance | % inhibition of SMAD7 mRNA expression |
| --- | --- |
| 771430 (e[5mC]*eG*e[5mC]*e[5mC]*e[5mC]*dG*d[5mC]*dG*dG*d[5mC]*dT*dG*dG*d[5mC]*dG*eG*eG*eT*eG*eG; antisense) [compound 771430] | 40% |
| 771893 (antisense eG*eT*e[5mC]*eA*eT*d[5mC]*d[5mC]*dG*dT*d[5mC]*d[5mC]*dA*d[5mC]*dT*dG*eT*e[5mC]*eT*eG*e[5mC]) [compound 771893] | 35% |
| 771549 (antisense e[5mC]*e[5mC]*eT*e[5mC]*eT*dT*d[5mC]*d[5mC]*dT*dA*dT*d[5mC]*dA*dG*dG*eG*eT*eG*eT*e[5mC]) [compound 771549] | 49% |
| 771589 (antisense eT*eG*eG*eA*e[5mC]*dA*dG*dG*d[5mC]*d[5mC]*d[5mC]*dG*dT*dG*dT*e[5mC]*e[5mC]*eT*eT*eG) [compound 771589] | 51% |
| 771765 (antisense e[5mC]*e[5mC]*eA*eA*eG*d[5mC]*d[5mC]*dA*dG*dG*dA*dG*d[5mC]*dT*dG*e[5mC]*eT*eT*eA*eA) [compound 771765] | 48% |
| 771525 (antisense eT*eT*eT*eG*e[5mC]*dA*dT*dG*dA*dA*dA*dA*dG*d[5mC]*dA*eA*eG*e[5mC]*eA*e[5mC]) [compound 771525] | 28% |
| 771653 (antisense eT*eG*e[5mC]*eT*e[5mC]*dA*dT*dT*dG*dA*dG*d[5mC]*dT*dA*dA*eG*eA*eA*e[5mC]*eA) [compound 771653] | 33% |
